# Reference: ChEMBL document CHEMBL1201862, “PubChem BioAssay data set” (2004)
#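 Exposure lasted 48 hours, with cells grown in 96-well plates and compounds tested at five concentrations. GI50: concentration for 50% inhibition of growth.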 Activity calls are given as the source filed them. Cut-off read from the data, not from the text of the source: active = GI50 up to about 1.1 µM and inactive = higher.
# How the values were obtained:
# Assay in all cases: NCI tumour cell line growth inhibition, 48 h
# 786-0 = system: 786-0
# A498 = system: A498
# A549 = system: A549
# ACHN = system: ACHN
# CAKI-1 = system: CAKI-1
# CCRF-CEM = system: CCRF-CEM
# COLO 205 = system: COLO 205
# DLD-1 = system: DLD-1
# DMS-114 = system: DMS-114
# DMS-273 = system: DMS-273
# EKVX = system: EKVX
# HCC 2998 = system: HCC 2998
# HCT-116 = system: HCT-116
# HCT-15 = system: HCT-15
# HOP-18 = system: HOP-18
# HOP-62 = system: HOP-62
# HT-29 = system: HT-29
# IGROV-1 = system: IGROV-1
# K562 = system: K562
# KM-20L2 = system: KM-20L2
# KM12 = system: KM12
# LOX IMVI = system: LOX IMVI
# LXFL 529 = system: LXFL 529
# M14 = system: M14
# M19-MEL = system: M19-MEL
# MOLT-4 = system: MOLT-4
# Malme-3M = system: Malme-3M
# NCI-H23 = system: NCI-H23
# NCI-H460 = system: NCI-H460
# OVCAR-3 = system: OVCAR-3
# OVCAR-4 = system: OVCAR-4
# OVCAR-5 = system: OVCAR-5
# OVCAR-8 = system: OVCAR-8
# RPMI-8226 = system: RPMI-8226
# RXF 393 = system: RXF 393
# RXF 631 = system: RXF 631
# SF-268 = system: SF-268
# SF-295 = system: SF-295
# SF-539 = system: SF-539
# SK-MEL-28 = system: SK-MEL-28
# SK-MEL-2 = system: SK-MEL-2
# SK-MEL-5 = system: SK-MEL-5
# SK-OV-3 = system: SK-OV-3
# SN12C = system: SN12C
# SNB-19 = system: SNB-19
# SNB-75 = system: SNB-75
# SNB-78 = system: SNB-78
# SW-620 = system: SW-620
# TK-10 = system: TK-10
# U-251 = system: U-251
# UACC-257 = system: UACC-257
# UACC-62 = system: UACC-62
# UO-31 = system: UO-31
# XF498 = system: XF498
# HL-60 = system: HL-60
# HOP-92 = system: HOP-92
# NCI-H226 = system: NCI-H226
# NCI-H522 = system: NCI-H522
smiles,measurement,setting,value
CSc1snc2sc3c(Cl)nnnc3c12,GI50,786-0,15.9 µM (inactive)
same,GI50,A498,15 µM (inactive)
same,GI50,A549,17.9 µM (inactive)
same,GI50,ACHN,11.1 µM (inactive)
same,GI50,CAKI-1,4.42 µM (inactive)
same,GI50,CCRF-CEM,2.12 µM (inactive)
same,GI50,COLO 205,10.5 µM (inactive)
same,GI50,DLD-1,10 µM (inactive)
same,GI50,DMS-114,13.2 µM (inactive)
same,GI50,DMS-273,11.4 µM (inactive)
same,GI50,EKVX,19.6 µM (inactive)
same,GI50,HCC 2998,6.01 µM (inactive)
same,GI50,HCT-116,16 µM (inactive)
same,GI50,HCT-15,8.15 µM
same,GI50,HOP-18,19.1 µM (inactive)
same,GI50,HOP-62,16.1 µM (inactive)
same,GI50,HT-29,4.84 µM (inactive)
same,GI50,IGROV-1,18.3 µM (inactive)
same,GI50,K562,2.36 µM (inactive)
same,GI50,KM-20L2,14 µM (inactive)
same,GI50,KM12,16.4 µM (inactive)
same,GI50,LOX IMVI,3.12 µM (inactive)
same,GI50,LXFL 529,2.11 µM (inactive)
same,GI50,M14,12.6 µM (inactive)
same,GI50,M19-MEL,9.35 µM (inactive)
same,GI50,MOLT-4,2.98 µM (inactive)
same,GI50,Malme-3M,11.4 µM (inactive)
same,GI50,NCI-H23,18.3 µM (inactive)
same,GI50,NCI-H460,15.8 µM (inactive)
same,GI50,OVCAR-3,2.43 µM (inactive)
same,GI50,OVCAR-4,14.8 µM (inactive)
same,GI50,OVCAR-5,17.2 µM (inactive)
same,GI50,OVCAR-8,7.46 µM (inactive)
same,GI50,RPMI-8226,15.6 µM (inactive)
same,GI50,RXF 393,12.3 µM (inactive)
same,GI50,RXF 631,16.1 µM (inactive)
same,GI50,SF-268,16.9 µM (inactive)
same,GI50,SF-295,18 µM (inactive)
same,GI50,SF-539,17.8 µM (inactive)
same,GI50,SK-MEL-28,10.6 µM (inactive)
same,GI50,SK-MEL-2,12.6 µM (inactive)
same,GI50,SK-MEL-5,16.7 µM (inactive)
same,GI50,SK-OV-3,17.7 µM (inactive)
same,GI50,SN12C,15.3 µM (inactive)
same,GI50,SNB-19,15.8 µM (inactive)
same,GI50,SNB-75,11.5 µM (inactive)
same,GI50,SNB-78,13.8 µM (inactive)
same,GI50,SW-620,3.8 µM (inactive)
same,GI50,TK-10,16.9 µM (inactive)
same,GI50,U-251,15.1 µM (inactive)
same,GI50,UACC-257,12.8 µM (inactive)
same,GI50,UACC-62,14.2 µM (inactive)
same,GI50,UO-31,13 µM (inactive)
same,GI50,XF498,14.4 µM (inactive)
O=c1[nH]c(=O)n(C2CC(O)C(O)C(CO)O2)cc1F (centres undefined),GI50,786-0,> 100 µM (inactive)
same,GI50,A498,> 100 µM (inactive)
same,GI50,A549,> 100 µM (inactive)
same,GI50,ACHN,> 100 µM (inactive)
same,GI50,CCRF-CEM,> 100 µM (inactive)
same,GI50,COLO 205,> 100 µM (inactive)
same,GI50,DLD-1,> 100 µM (inactive)
same,GI50,DMS-114,> 100 µM (inactive)
same,GI50,EKVX,> 100 µM (inactive)
same,GI50,HCC 2998,> 100 µM (inactive)
same,GI50,HCT-116,> 100 µM (inactive)
same,GI50,HCT-15,> 100 µM
same,GI50,HL-60,> 100 µM (inactive)
same,GI50,HOP-18,> 100 µM (inactive)
same,GI50,HOP-62,> 100 µM (inactive)
same,GI50,HOP-92,> 100 µM (inactive)
same,GI50,HT-29,> 100 µM (inactive)
same,GI50,IGROV-1,> 100 µM (inactive)
same,GI50,K562,> 100 µM (inactive)
same,GI50,KM-20L2,> 100 µM (inactive)
same,GI50,KM12,> 100 µM (inactive)
same,GI50,LOX IMVI,> 100 µM (inactive)
same,GI50,LXFL 529,> 100 µM (inactive)
same,GI50,M14,> 100 µM (inactive)
same,GI50,M19-MEL,> 100 µM (inactive)
same,GI50,MOLT-4,> 100 µM (inactive)
same,GI50,Malme-3M,> 100 µM (inactive)
same,GI50,NCI-H226,> 100 µM (inactive)
same,GI50,NCI-H23,> 100 µM (inactive)
same,GI50,NCI-H460,> 100 µM (inactive)
same,GI50,NCI-H522,> 100 µM (inactive)
same,GI50,OVCAR-3,> 100 µM (inactive)
same,GI50,OVCAR-4,> 100 µM (inactive)
same,GI50,OVCAR-5,> 100 µM (inactive)
same,GI50,OVCAR-8,> 100 µM (inactive)
same,GI50,RPMI-8226,> 100 µM (inactive)
same,GI50,RXF 393,> 100 µM (inactive)
same,GI50,RXF 631,> 100 µM (inactive)
same,GI50,SF-268,> 100 µM (inactive)
same,GI50,SF-295,> 100 µM (inactive)
same,GI50,SF-539,> 100 µM (inactive)
same,GI50,SK-MEL-28,> 100 µM (inactive)
same,GI50,SK-MEL-2,> 100 µM (inactive)
same,GI50,SK-OV-3,> 100 µM (inactive)
same,GI50,SN12C,> 100 µM (inactive)
same,GI50,SNB-19,> 100 µM (inactive)
same,GI50,SNB-75,> 100 µM (inactive)
same,GI50,SNB-78,> 100 µM (inactive)
same,GI50,SW-620,> 100 µM (inactive)
same,GI50,TK-10,> 100 µM (inactive)
same,GI50,U-251,> 100 µM (inactive)
same,GI50,UACC-257,> 100 µM (inactive)
same,GI50,UACC-62,> 100 µM (inactive)
same,GI50,UO-31,> 100 µM (inactive)
same,GI50,XF498,> 100 µM (inactive)
